PubChem BioAssay AID330 (DTP/NCI, 2004)
Where “and” joins values, the source holds several entries; their conditions need not be identical. Equal entries are not always repeated. Inconclusive results and toxic doses are left out.

Tested on: P388 leukemia ip, CD2F1 mice, survival T/C
Experiment: NCI In Vivo Anticancer Drug Screen. Data for tumor model P388 Leukemia (intraperitoneal) in CD2F1 (CDF1) mice
Conditions: endpoint: median survival time, higher = longer survival
Outline: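 Mice carrying the transplanted tumor received test compound or vehicle. Survival was recorded in each group, and the value is the treated-group measurement divided by that of the vehicle-treated control group.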

[1] = dose: 50.0 mg/kg/injection, schedule: Q01DX009 (ip), vehicle: Klucel (hydroxypropylcellulose) (HPC)
[2] = dose: 200.0 mg/kg/injection, schedule: Q01DX009 (ip), vehicle: Klucel (hydroxypropylcellulose) (HPC)
[3] = dose: 400.0 mg/kg/injection, schedule: Q01DX009 (ip), vehicle: Klucel (hydroxypropylcellulose) (HPC)
[4] = dose: 100.0 mg/kg/injection, schedule: Q04DX003 (ip), vehicle: saline
[5] = dose: 200.0 mg/kg/injection, schedule: Q04DX003 (ip), vehicle: saline
[6] = dose: 100.0 mg/kg/injection, schedule: Q01DX009 (ip), vehicle: Klucel (hydroxypropylcellulose) (HPC)
[7] = dose: 6.25 mg/kg/injection, schedule: Q01DX009 (ip), vehicle: saline with Tween-80
[8] = dose: 12.5 mg/kg/injection, schedule: Q01DX009 (ip), vehicle: saline with Tween-80
[9] = dose: 25.0 mg/kg/injection, schedule: Q01DX009 (ip), vehicle: saline with Tween-80
[10] = dose: 50.0 mg/kg/injection, schedule: Q01DX005 (ip), vehicle: saline with Tween-80
[11] = dose: 200.0 mg/kg/injection, schedule: Q01DX005 (ip), vehicle: saline with Tween-80
[12] = dose: 100.0 mg/kg/injection, schedule: Q04DX003 (ip), vehicle: saline with Tween-80
[13] = dose: 100.0 mg/kg/injection, schedule: Q01DX005 (ip), vehicle: saline with Tween-80
[14] = dose: 25.0 mg/kg/injection, schedule: Q01DX009 (ip), vehicle: saline
[15] = dose: 100.0 mg/kg/injection, schedule: Q01DX009 (ip), vehicle: saline

Q: Which T/C (dose: 1.56 mg/kg/injection, schedule: Q04DX003 (ip), vehicle: Klucel (hydroxypropylcellulose) (HPC)) does the source give for CC(=O)Oc1cccc2c1C(=O)c1c(OC(C)=O)cccc1C2=O here?
A: 99 % of control and 89 % of control

Q: And the T/C (dose: 3.12 mg/kg/injection, schedule: Q04DX003 (ip), vehicle: Klucel (hydroxypropylcellulose) (HPC))?
A: 97 % of control

Q: And the T/C (dose: 3.13 mg/kg/injection, schedule: Q04DX003 (ip), vehicle: Klucel (hydroxypropylcellulose) (HPC))?
A: 107 % of control

Q: What about the T/C (dose: 6.25 mg/kg/injection, schedule: Q04DX003 (ip), vehicle: Klucel (hydroxypropylcellulose) (HPC)) of the same compound?
A: 99 % of control and 97 % of control

Q: What about the T/C (dose: 12.5 mg/kg/injection, schedule: Q04DX003 (ip), vehicle: Klucel (hydroxypropylcellulose) (HPC)) of the same compound?
A: 99 % of control and 92 % of control

Q: What about the T/C [1] of the same compound?
A: 87 % of control

Q: What about the T/C [2] of the same compound?
A: 87 % of control

Q: And the T/C [3]?
A: 96 % of control

Q: How did the T/C [4] turn out when CC(O)(CO)C(C)(O)C(C)(O)c1cn(O)c(=N)c(C(=O)OCc2ccccc2)n1 (stereo not given) was run?
A: 93 % of control

Q: What about the T/C [5] of the same compound?
A: 102 % of control

Q: What does the source list for S=C(N/N=C/c1ccc(Cl)cc1)Nc1ccccc1?
A: T/C [6]: 101 % of control; T/C [2]: 100 % of control; T/C [3]: 93 % of control

Q: What does the source list for C[C@]12CC[C@H](O)C[C@@]1(O)CC[C@@H]1[C@@H]2CC[C@]2(C)[C@@H](c3ccc(=O)oc3)C[C@H]3O[C@]132?
A: T/C (dose: 1.25 mg/kg/injection, schedule: Q01DX005 (ip), vehicle: saline + alcohol): 107 % of control; T/C (dose: 2.5 mg/kg/injection, schedule: Q01DX005 (ip), vehicle: saline + alcohol): 104 % of control; T/C (dose: 5.0 mg/kg/injection, schedule: Q01DX005 (ip), vehicle: saline + alcohol): 116 % of control; T/C (dose: 10.0 mg/kg/injection, schedule: Q01DX005 (ip), vehicle: saline + alcohol): 94 % of control

Q: O=C(CCl)N1c2ccccc2Sc2c1ccc1ccccc21 was tested. Which T/C (dose: 3.12 mg/kg/injection, schedule: Q01DX009 (ip), vehicle: saline with Tween-80) did it give?
A: 103 % of control

Q: And the T/C [7]?
A: 104 % of control

Q: What about the T/C (dose: 6.25 mg/kg/injection, schedule: Q01DX009 (ip), vehicle: suspension in saline) of the same compound?
A: 100 % of control

Q: And the T/C [8]?
A: 120 % of control

Q: And the T/C (dose: 12.5 mg/kg/injection, schedule: Q01DX009 (ip), vehicle: suspension in saline)?
A: 102 % of control and 122 % of control

Q: And the T/C [9]?
A: 116 % of control

Q: And the T/C (dose: 25.0 mg/kg/injection, schedule: Q01DX009 (ip), vehicle: suspension in saline)?
A: 103 % of control and 118 % of control

Q: What about the T/C (dose: 50.0 mg/kg/injection, schedule: Q01DX009 (ip), vehicle: saline with Tween-80) of the same compound?
A: 116 % of control

Q: What about the T/C (dose: 50.0 mg/kg/injection, schedule: Q01DX009 (ip), vehicle: suspension in saline) of the same compound?
A: 103 % of control

Q: And the T/C (dose: 100.0 mg/kg/injection, schedule: Q01DX009 (ip), vehicle: saline with Tween-80)?
A: 110 % of control

Q: What about the T/C (dose: 100.0 mg/kg/injection, schedule: Q01DX009 (ip), vehicle: suspension in saline) of the same compound?
A: 102 % of control and 123 % of control

Q: And the T/C (dose: 200.0 mg/kg/injection, schedule: Q01DX009 (ip), vehicle: suspension in saline)?
A: 108 % of control

Q: What does the source list for O=S(=O)(CBr)OCCCl?
A: T/C [10]: 120 % of control; T/C (dose: 150.0 mg/kg/injection, schedule: Q01DX005 (ip), vehicle: saline with Tween-80): 159 % of control; T/C [11]: 200 % of control

Q: CC(=O)Oc1c(C)c(C)c(OC(C)=O)c(OC(C)=O)c1C was tested. Which T/C (dose: 100.0 mg/kg/injection, schedule: Q04DX002 (ip), vehicle: Klucel (hydroxypropylcellulose) (HPC)) did it give?
A: 93 % of control

Q: And the T/C (dose: 200.0 mg/kg/injection, schedule: Q04DX002 (ip), vehicle: Klucel (hydroxypropylcellulose) (HPC))?
A: 96 % of control

Q: And the T/C (dose: 400.0 mg/kg/injection, schedule: Q04DX002 (ip), vehicle: Klucel (hydroxypropylcellulose) (HPC))?
A: 90 % of control

Q: CC(CC=O)CCCC(C)(C)O (stereo not given) was tested. Which T/C [12] did it give?
A: 100 % of control

Q: And the T/C (dose: 200.0 mg/kg/injection, schedule: Q04DX003 (ip), vehicle: saline with Tween-80)?
A: 100 % of control

Q: And the T/C (dose: 400.0 mg/kg/injection, schedule: Q04DX003 (ip), vehicle: saline with Tween-80)?
A: 100 % of control

Q: O=c1oc2c(Br)cccc2cc1-c1ccc(Br)c2ccccc12 was tested. Which T/C [1] did it give?
A: 101 % of control

Q: And the T/C [6]?
A: 97 % of control

Q: And the T/C [2]?
A: 93 % of control

Q: With Cn1c2ccccc2c(=Nc2ccc(S(N)(=O)=O)cc2)c2ccccc21 as the compound, how does the T/C [13] read?
A: 97 % of control

Q: Which results are given for COC(=O)C1CCCCOCCOCCOCCOCCOCCCCCC1=O (stereo not given)?
A: T/C [10]: 102 % of control; T/C [13]: 102 % of control; T/C [11]: 94 % of control

Q: Which T/C (dose: 25.0 mg/kg/injection, schedule: Q04DX002 (ip), vehicle: saline) does the source give for CC12C(=O)C(Br)C1CC2S(=O)(=O)O (stereo not given) here?
A: 97 % of control

Q: What about the T/C (dose: 50.0 mg/kg/injection, schedule: Q04DX002 (ip), vehicle: saline) of the same compound?
A: 95 % of control

Q: And the T/C (dose: 100.0 mg/kg/injection, schedule: Q04DX002 (ip), vehicle: saline)?
A: 98 % of control

Q: What about the T/C (dose: 200.0 mg/kg/injection, schedule: Q04DX002 (ip), vehicle: saline with Tween-80) of the same compound?
A: 96 % of control

Q: And the T/C (dose: 400.0 mg/kg/injection, schedule: Q04DX002 (ip), vehicle: saline with Tween-80)?
A: 99 % of control

Q: Which T/C (dose: 50.0 mg/kg/injection, schedule: Q01DX005 (ip), vehicle: saline) does the source give for O=C(O)C[n+]1cccc2ccccc21 here?
A: 103 % of control

Q: And the T/C (dose: 100.0 mg/kg/injection, schedule: Q01DX005 (ip), vehicle: saline)?
A: 93 % of control

Q: What about the T/C (dose: 200.0 mg/kg/injection, schedule: Q01DX005 (ip), vehicle: saline) of the same compound?
A: 87 % of control

Q: Which results are given for C/C(=C/c1cc(Br)c(O)c(Br)c1)[N+](=O)[O-]?
A: T/C (dose: 6.25 mg/kg/injection, schedule: Q01DX009 (ip), vehicle: saline): 100 % of control; T/C (dose: 12.5 mg/kg/injection, schedule: Q01DX009 (ip), vehicle: saline): 110 % of control and 90 % of control; T/C (dose: 12.5 mg/kg/injection, schedule: Q04DX003 (ip), vehicle: saline): 106 % of control; T/C [14]: 109 % of control and 90 % of control; T/C (dose: 25.0 mg/kg/injection, schedule: Q04DX003 (ip), vehicle: saline): 100 % of control; T/C (dose: 50.0 mg/kg/injection, schedule: Q04DX003 (ip), vehicle: saline): 100 % of control; T/C [15]: 90 % of control; T/C [12]: 98 % of control

Q: For O=C1C=CC(Nc2ccc(Cl)c(Cl)c2)C1Nc1ccc(Cl)c(Cl)c1 (stereo not given), which T/C (dose: 60.0 mg/kg/injection, schedule: Q01DX005 (ip), vehicle: saline with Tween-80) is on record?
A: 100 % of control

Q: What about the T/C (dose: 120.0 mg/kg/injection, schedule: Q01DX005 (ip), vehicle: saline with Tween-80) of the same compound?
A: 93 % of control

Q: And the T/C (dose: 240.0 mg/kg/injection, schedule: Q01DX005 (ip), vehicle: saline with Tween-80)?
A: 93 % of control

Q: With c1nnc(NCNc2nncs2)s1 as the compound, how does the T/C [4] read?
A: 240 % of control

Q: What about the T/C [5] of the same compound?
A: 109 % of control

Q: Cl was tested. Which T/C [7] did it give?
A: 95 % of control

Q: And the T/C (dose: 0.01 % in 0.5 ml injection vol, schedule: Q01DX009 (ip), vehicle: water)?
A: 100 % of control

Q: What about the T/C [8] of the same compound?
A: 100 % of control

Q: And the T/C (dose: 0.02 % in 0.5 ml injection vol, schedule: Q01DX009 (ip), vehicle: water)?
A: 101 % of control and 92 % of control

Q: What about the T/C [9] of the same compound?
A: 100 % of control

Q: And the T/C [14]?
A: 106 % of control

Q: What about the T/C (dose: 0.04 % in 0.5 ml injection vol, schedule: Q01DX009 (ip), vehicle: water) of the same compound?
A: 102 % of control and 108 % of control

Q: What about the T/C (dose: 50.0 mg/kg/injection, schedule: Q01DX009 (ip), vehicle: saline) of the same compound?
A: 104 % of control

Q: And the T/C (dose: 50.0 mg/kg/injection, schedule: Q#A X018 (ip), vehicle: saline)?
A: 99 % of control

Q: And the T/C (dose: 0.08 % in 0.5 ml injection vol, schedule: Q01DX009 (ip), vehicle: water)?
A: 100 % of control and 88 % of control

Q: And the T/C [15]?
A: 101 % of control

Q: What about the T/C (dose: 100.0 mg/kg/injection, schedule: Q#A X018 (ip), vehicle: saline) of the same compound?
A: 105 % of control

Q: What about the T/C (dose: 0.16 % in 0.5 ml injection vol, schedule: Q01DX009 (ip), vehicle: water) of the same compound?
A: 88 % of control

Q: What about the T/C (dose: 200.0 mg/kg/injection, schedule: Q01DX009 (ip), vehicle: saline) of the same compound?
A: 110 % of control and 97 % of control

Q: What about the T/C (dose: 200.0 mg/kg/injection, schedule: Q#A X018 (ip), vehicle: saline) of the same compound?
A: 97 % of control

Q: What about the T/C (dose: 0.31 % in 0.5 ml injection vol, schedule: Q01DX009 (ip), vehicle: water) of the same compound?
A: 88 % of control

Q: What about the T/C (dose: 400.0 mg/kg/injection, schedule: Q01DX009 (ip), vehicle: saline) of the same compound?
A: 95 % of control

Q: And the T/C (dose: 400.0 mg/kg/injection, schedule: Q#A X018 (ip), vehicle: saline)?
A: 87 % of control

Q: What about the T/C (dose: 800.0 mg/kg/injection, schedule: Q01DX009 (ip), vehicle: saline) of the same compound?
A: 103 % of control
